Data published in patent US11168102B1, “Bicyclic heteroaryl compounds and uses thereof” (Revolution Medicines, Inc., priority 2019, dated 2021).

target: SOS1 catalytic domain (residues 564-1049) (Homo sapiens (Human), UniProt Q07889); experiment: Potency assay: binding affinity to SOS1 by Surface Plasmon Resonance (SPR); conditions: avi-tagged SOS1 catalytic domain immobilized on sensor chip; 1:1 equilibrium binding fit
Sequence (Q07889 564-1049): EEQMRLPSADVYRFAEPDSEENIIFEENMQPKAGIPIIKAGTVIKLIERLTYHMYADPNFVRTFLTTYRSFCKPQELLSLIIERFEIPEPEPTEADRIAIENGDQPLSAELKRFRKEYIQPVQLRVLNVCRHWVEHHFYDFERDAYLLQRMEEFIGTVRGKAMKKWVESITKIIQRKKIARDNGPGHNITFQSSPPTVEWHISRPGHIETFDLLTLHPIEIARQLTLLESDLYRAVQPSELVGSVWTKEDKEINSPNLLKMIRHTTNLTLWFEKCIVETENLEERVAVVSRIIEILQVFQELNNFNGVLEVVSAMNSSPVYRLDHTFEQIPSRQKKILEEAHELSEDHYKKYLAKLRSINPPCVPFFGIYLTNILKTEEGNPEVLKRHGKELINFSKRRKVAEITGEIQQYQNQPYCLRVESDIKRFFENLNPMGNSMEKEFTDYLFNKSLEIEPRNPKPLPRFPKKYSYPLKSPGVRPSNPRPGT

| Compound | Kd [nM] |
| --- | --- |
| C[C@@H](Nc1ncnc2c1cc(C1CCN(CC(F)(F)F)CC1)c(=O)n2C)c1cccc(C(F)F)c1F [Example 8-16] | 136 |
| C[C@@H](Nc1ncnc2c1cc(-c1cncnc1)c(=O)n2C)c1cccc(C(F)F)c1F [Example 21-2] | 85.4 |
| Cc1nc(N[C@H](C)c2cccc(C(F)F)c2F)c2cc(N3CC4(COC4)C3)c(=O)n(C)c2n1 [Example 2-3] | 89 |
| Cc1nc(N[C@H](C)c2cccc(C(F)F)c2F)c2cc(C3=CCCOC3)c(=O)n(CCO)c2n1 [Example 11-1] | 81.3 |

system: cellular pERK in PC-9 cells (EGFR Ex19Del); experiment: Potency assay: pERK (AlphaLISA SureFire Ultra p-ERK1/2) in PC-9 cells; format: cell-based; conditions: Homo sapiens, PC-9, 1 h, PC-9 cells (EGFR Ex19Del), 1 hour incubation, AlphaLISA SureFire Ultra p-ERK1/2; read-out: SOS1 pERK IC50

| IC50 [nM] | Compound |
| --- | --- |
| 9.79 | COC1(c2cc3c(N[C@H](C)c4cccc(C(F)F)c4F)nc(C)nc3n(C)c2=O)CCN(C(C)=O)CC1 [Example 32-32] |
| 38.8 | C[C@@H](Nc1ncnc2c1cc(C1(C#N)CCC3(CC1)CS(=O)(=O)C3)c(=O)n2C)c1cccc(C(F)F)c1F [Example 36-8] |
| 91.5 | CC(=O)N1CC(F)(c2cc3c(N[C@H](C)c4cccc(C(F)F)c4F)ncnc3n(C)c2=O)C1 [Example 29-2] |
| 49.3 | COC1(c2cc3c(N[C@H](C)c4cccc(C(F)F)c4F)ncnc3n(C)c2=O)CC2(CN(C(C)=O)C2)C1 [Example 32-15] |
| 28.6 | COC1(c2cc3c(N[C@H](C)c4cccc(C(F)F)c4F)ncnc3n(C)c2=O)CCN(C(=O)C2COC2)CC1 [Example 32-12] |
| 335 | C[C@@H](Nc1ncnc2c1cc(C1CCN(S(C)(=O)=O)C1)c(=O)n2C)c1cccc(C(F)F)c1F (some centres unmarked) [Example 33-10] |
| 71.4 | COC1(c2cc3c(N[C@H](C)c4cccc(C(F)F)c4F)ncnc3n(C)c2=O)CN(C(C)=O)C1 [Example 32-7] |
| 40.2 | COCCOC1(c2cc3c(N[C@H](C)c4cccc(C(F)F)c4F)ncnc3n(C)c2=O)CCS(=O)(=O)CC1 [Example 32-54] |
| 521 | C[C@@H](Nc1ncnc2c1cc(C1CN(S(C)(=O)=O)C1)c(=O)n2C)c1cccc(C(F)F)c1F [Example 33-7] |
| 124 | CC(=O)N1CCC(C#N)(c2cc3c(N[C@H](C)c4cccc(C(F)F)c4F)ncnc3n(C)c2=O)C1 (some centres unmarked) [Example 36-5] |
| 73.8 | [2H]C(=O)N1CCC(c2cc3c(N[C@H](C)c4cccc(C(F)F)c4F)ncnc3n(C)c2=O)CC1 [Example 33-25] |
| 436 | COC1(c2cc3c(N[C@H](C)c4cccc(C(F)F)c4F)ncnc3n(C)c2=O)CN(S(C)(=O)=O)C1 [Example 32-10] |
| 1440 | COC1(c2cc3c(N[C@H](C)c4cccc(C(F)F)c4F)ncnc3n(C)c2=O)C2CC1CN(C(C)=O)C2 (some centres unmarked) [Example 32-25] |
| 20.3 | COC1(c2cc3c(N[C@H](C)c4cccc(C(F)F)c4F)ncnc3n(C)c2=O)CCC(S(C)(=O)=O)CC1 (some centres unmarked) [Example 32-59] |
| 87.9 | C[C@@H](Nc1ncnc2c1cc(C1CS(=O)(=O)C1)c(=O)n2C)c1cccc(C(F)F)c1F [Example 33-16] |
| 11.8 | COC1(c2cc3c(N[C@H](C)c4cccc(C(F)F)c4F)ncnc3n(C)c2=O)C[C@@H](C)N(C(C)=O)C1 (some centres unmarked) [Example 32-37] |
| 249 | COC1(c2cc3c(N[C@H](C)c4cccc(C(F)F)c4F)ncnc3n(C)c2=O)CCP(C)(=O)CC1 (some centres unmarked) [Example 32-45] |
| 461 | CO[C@]1(c2cc3c(N[C@H](C)c4cccc(C(F)F)c4F)ncnc3n(C)c2=O)C[C@H](N(C)C(C)=O)C1 [Example 32-41] |
| 136 | COC1(c2cc3c(C[C@H](C)c4cccc(C(F)F)c4F)ncnc3n(C)c2=O)CC2(C1)CS(=O)(=NC1CC1)C2 (some centres unmarked) [Example 68-2] |
| 33.3 | C[C@@H](Nc1ncnc2c1cc(C1(C#N)CC3(C1)CS(=O)(=O)C3)c(=O)n2C)c1cccc(C(F)F)c1F [Example 36-6] |

The remaining lines, values behind:

| Compound | IC50 [nM] |
| --- | --- |
| Cc1nc(N[C@H](C)c2cccc(C(F)F)c2F)c2cc(N3CC4(COC4)C3)c(=O)n(C)c2n1 [Example 2-3] | 188 |
| Cc1nc(N[C@H](C)c2cccc(C(F)F)c2F)c2cc(N3CC(F)(F)C3)c(=O)n(C)c2n1 [Example 2-2] | 427 |
| C[C@@H](Nc1ncnc2c1cc(C(=O)N1CC3CC1CO3)c(=O)n2C)c1cccc(C(F)F)c1F (some centres unmarked) [Example 26-6] | 8830 |
| C[C@@H](Nc1ncnc2c1cc(C(=O)N1Cc3cccnc3C1)c(=O)n2C)c1cccc(C(F)F)c1F [Example 26-28] | 766 |
| Cc1nc(N[C@H](C)c2cccc(C(F)(F)CO)c2)c2cc(C3=CCNCC3)c(=O)n(C)c2n1 [Example 4, (R)-4-((1-(3-(1,1-difluoro-2-hydroxyethyl)phenyl)ethyl)amino)-2,8-dimethyl-6-(1,2,3,6-tetrahydropyridin-4-yl)pyrido[2,3-d]pyrimidin-7(8H)-one] | 481 |
| CN=S1(=O)CCC(F)(c2cc3c(N[C@H](C)c4cccc(C(F)F)c4F)ncnc3n(C)c2=O)CC1 (single isomer, unassigned) [Example 51] | 41.1 |
| CC(=O)N1CCC(c2cc3c(N[C@H](C)c4cc(C(F)F)cc(C5(F)CNC5)c4)ncnc3n(C)c2=O)CC1 [Example 43, 6-(1-acetyl-4-piperidyl)-4-[[(1R)-1-[3-(difluoromethyl)-5-(3-fluoroazetidin-3-yl)phenyl]ethyl]amino]-8-methyl-pyrido[2,3-d]pyrimidin-7-one] | > 7290 |
| C[C@@H](Nc1ncnc2c1cc(C1=CCCNC1)c(=O)n2C)c1cccc(C(F)F)c1F [Example 1-4] | 43.1 |
| C[C@@H](Nc1ncnc2c1cc(C(=O)N1CC3(CCCO3)C1)c(=O)n2C)c1cccc(C(F)F)c1F [Example 26-13] | 1130 |
| C[C@@H](Nc1ncnc2c1cc(C1CCS(=O)(=NC3COC3)CC1)c(=O)n2C)c1cccc(C(F)F)c1F (stereo partly drawn) [Example 60, 4-[[(1R)-1-[3-(difluoromethyl)-2-fluoro-phenyl]ethyl]amino]-8-methyl-6-[1-(oxetan-3-ylimino)-1-oxo-thian-4-yl]pyrido[2,3-d]pyrimidin-7-one] | 23.1 |
| C[C@@H](Nc1ncnc2c1cc(-c1ccccc1)c(=O)n2C)c1cccc(C(F)F)c1F [Example 21-13] | 486 |
| C[C@@H](Nc1ncnc2c1cc(C1(O)CC3CCC(C1)S3(=O)=O)c(=O)n2C)c1cccc(C(F)F)c1F (some centres unmarked) [Example 28-5] | 157 |
| C[C@@H](Nc1ncnc2c1cc(C1=CCS(=O)(=O)CC1)c(=O)n2C)c1cccc(C(F)(F)CN)c1F [Example 42, 4-(4-{[(1R)-1-[3-(2-amino-1,1-difluoroethyl)-2-fluorophenyl]ethyl]amino}-8-methyl-7-oxo-7H,8H-pyrido[2,3-d]pyrimidin-6-yl)-3,6-dihydro-2H-1λ^6-thiopyran-1,1-dione] | 242 |
| C[C@@H](Nc1ncnc2c1cc(C1=CC[P@@](C)(=O)CC1)c(=O)n2C)c1cccc(C(F)F)c1F [Example 1-33] | 201 |
| C[C@@H](Nc1ncnc2c1cc(C(=O)N1CCCC13CCOCC3)c(=O)n2C)c1cccc(C(F)F)c1F [Example 26-42] | 194 |
| C[C@@H](Nc1ncnc2c1cc(C(=O)N1CCCC13CCOC3)c(=O)n2C)c1cccc(C(F)F)c1F (some centres unmarked) [Example 26-34] | 122 |
| C[C@@H](Nc1ncnc2c1cc(C(=O)N1CCN3CCOCC3C1)c(=O)n2C)c1cccc(C(F)F)c1F (some centres unmarked) [Example 26-44] | 401 |
| COC1(c2cc3c(N[C@H](C)c4cccc(C(F)F)c4F)ncnc3n(C)c2=O)CCS(=O)(=O)CC1 [Example 32, 4-(4-{[(1R)-1-[3-(difluoro-methyl)-2-fluorophenyl]ethyl]amino}-8-methyl-7-oxo-7H,8H-pyrido[2,3-d]pyrimidin-6-yl)-4-methoxy-λ1^6-thiane-1,1-dione] | 58.4 |
| C[C@@H](Nc1ncnc2c1cc(C1(O)CCS(=O)(=O)CC1)c(=O)n2C)c1cccc(C(F)F)c1F [Example 28, 4-(4-{[(1R)-1-[3-(difluoromethyl)-2-fluorophenyl]-ethyl]amino}-8-methyl-7-oxo-7H,8H-pyrido[2,3-d]pyrimidin-6-yl)-4-hydroxy-1λ^6-thiane-1,1-dione] | 93.7 |
| C[C@@H](Nc1ncnc2c1cc(C(=O)N1CC3CCC1CO3)c(=O)n2C)c1cccc(C(F)F)c1F (some centres unmarked) [Example 26-18] | 589 |
| Cc1nc(N[C@H](C)c2cccc(C(F)F)c2F)c2cc(CN3CCOCC3)c(=O)n(C)c2n1 [Example 27, 4-{[(1R)-1-[3-(difluoromethyl)-2-fluorophenyl]ethyl]amino}-2,8-dimethyl-6-[(morpholin-4-yl)meth-yl]-7H,8H-pyrido[2,3-d]pyrimidin-7-one] | 852 |
| C[C@@H](Nc1ncnc2c1cc(C1(O)CS(=O)(=O)C1)c(=O)n2C)c1cccc(C(F)F)c1F [Example 28-7] | 322 |

same assay, conditions: PC-9 cells (EGFR Ex19Del), 1 hour incubation, AlphaLISA SureFire Ultra p-ERK1/2; read-out: SOS1 pERK IC50

| Compound | IC50 [nM] |
| --- | --- |
| C[C@@H](Nc1ncnc2c1cc(C1(C#N)CCC3(CC1)CS(=O)(=NC1CC1)C3)c(=O)n2C)c1cccc(C(F)F)c1F (single isomer, unassigned) [Example 58-2] | 56.2 |
| C[C@@H](Nc1ncnc2c1cc(C1(F)CCC3(CC1)CS(=O)(=NC1CC1)C3)c(=O)n2C)c1cccc(C(F)F)c1F (single isomer, unassigned) [Example 56-2] | 294 |
| COC1(c2cc3c(N[C@H](C)c4cccc(C(F)F)c4F)ncnc3n(C)c2=O)CCN(C(C)=O)C2(CC2)C1 (some centres unmarked) [Example 32-43] | 181 |
| COC1(c2cc3c(N[C@H](C)c4cccc(C(F)F)c4F)ncnc3n(C)c2=O)CCS(=O)(=O)C(C)C1 (some centres unmarked) [Example 32-66] | 127 |
| C[C@@H](Nc1ncnc2c1cc(C1CCP(C)(=O)CC1)c(=O)n2C)c1cccc(C(F)F)c1F (some centres unmarked) [Example 33-23] | 85.4 |
| C[C@@H](Nc1ncnc2c1cc(C1CCP(C)(=O)CC1)c(=O)n2C)c1cccc(C(F)F)c1F (some centres unmarked) [Example 33-22] | 1200 |

target: SOS1 nucleotide exchange of wild-type KRAS (Homo sapiens (Human), UniProt Q07889); experiment: Mode of action assay: inhibition of SOS1 nucleotide exchange activity (TR-FRET); format: biochemical; conditions: SOS1 catalytic domain (564-1049), avi-tagged KRAS (1-169), EDA-GTP-DY-647P1; three replicates
Sequence (Q07889 564-1049): as above

| Compound | IC50 [nM] |
| --- | --- |
| C[C@@H](Nc1ncnc2c1cc(C1CCN(CC(F)(F)F)CC1)c(=O)n2C)c1cccc(C(F)F)c1F [Example 8-16] | 77.5 |
| C[C@@H](Nc1ncnc2c1cc(-c1cncnc1)c(=O)n2C)c1cccc(C(F)F)c1F [Example 21-2] | 42.9 |
| COC1(c2cc3c(N[C@H](C)c4cccc(C(F)F)c4F)nc(C)nc3n(C)c2=O)CCN(C(C)=O)CC1 [Example 32-32] | 4.77 |
| Cc1nc(N[C@H](C)c2cccc(C(F)F)c2F)c2cc(N3CC(F)(F)C3)c(=O)n(C)c2n1 [Example 2-2] | 2080 |
| C[C@@H](Nc1ncnc2c1cc(C(=O)N1CC3CC1CO3)c(=O)n2C)c1cccc(C(F)F)c1F (some centres unmarked) [Example 26-6] | > 20000 |
| COc1cccc(Cc2cc3c(N[C@H](C)c4cccc(C(F)F)c4F)nc(C)nc3n(C)c2=O)c1OC [Example 20] | > 20000 |
| COc1ccc(Cc2cc3c(N[C@H](C)c4cccc(C(F)F)c4F)nc(C)nc3n(C)c2=O)cc1OC [Example 20-1] | 6170 |
